Data as given in ChEMBL document CHEMBL5696442, “Discovery of type II inhibitors of TGFβ-activated kinase 1 (TAK1) and mitogen-activated protein kinase kinase kinase kinase 2 (MAP4K2)” (J Med Chem, 2015).
The source made the active and inactive calls. No cut-off for these calls is given here.

What was measured:
[1] = target: T1, Serine/threonine-protein kinase TAO2 (Homo sapiens) (UniProt Q9UL54); experiment: Inhibition of TAO2 Lys2 labeling site in human Huh-7 cells at 1 uM by KiNativ Profiling analysis relative to control; format: cell-based
T1 sequence (whole entry): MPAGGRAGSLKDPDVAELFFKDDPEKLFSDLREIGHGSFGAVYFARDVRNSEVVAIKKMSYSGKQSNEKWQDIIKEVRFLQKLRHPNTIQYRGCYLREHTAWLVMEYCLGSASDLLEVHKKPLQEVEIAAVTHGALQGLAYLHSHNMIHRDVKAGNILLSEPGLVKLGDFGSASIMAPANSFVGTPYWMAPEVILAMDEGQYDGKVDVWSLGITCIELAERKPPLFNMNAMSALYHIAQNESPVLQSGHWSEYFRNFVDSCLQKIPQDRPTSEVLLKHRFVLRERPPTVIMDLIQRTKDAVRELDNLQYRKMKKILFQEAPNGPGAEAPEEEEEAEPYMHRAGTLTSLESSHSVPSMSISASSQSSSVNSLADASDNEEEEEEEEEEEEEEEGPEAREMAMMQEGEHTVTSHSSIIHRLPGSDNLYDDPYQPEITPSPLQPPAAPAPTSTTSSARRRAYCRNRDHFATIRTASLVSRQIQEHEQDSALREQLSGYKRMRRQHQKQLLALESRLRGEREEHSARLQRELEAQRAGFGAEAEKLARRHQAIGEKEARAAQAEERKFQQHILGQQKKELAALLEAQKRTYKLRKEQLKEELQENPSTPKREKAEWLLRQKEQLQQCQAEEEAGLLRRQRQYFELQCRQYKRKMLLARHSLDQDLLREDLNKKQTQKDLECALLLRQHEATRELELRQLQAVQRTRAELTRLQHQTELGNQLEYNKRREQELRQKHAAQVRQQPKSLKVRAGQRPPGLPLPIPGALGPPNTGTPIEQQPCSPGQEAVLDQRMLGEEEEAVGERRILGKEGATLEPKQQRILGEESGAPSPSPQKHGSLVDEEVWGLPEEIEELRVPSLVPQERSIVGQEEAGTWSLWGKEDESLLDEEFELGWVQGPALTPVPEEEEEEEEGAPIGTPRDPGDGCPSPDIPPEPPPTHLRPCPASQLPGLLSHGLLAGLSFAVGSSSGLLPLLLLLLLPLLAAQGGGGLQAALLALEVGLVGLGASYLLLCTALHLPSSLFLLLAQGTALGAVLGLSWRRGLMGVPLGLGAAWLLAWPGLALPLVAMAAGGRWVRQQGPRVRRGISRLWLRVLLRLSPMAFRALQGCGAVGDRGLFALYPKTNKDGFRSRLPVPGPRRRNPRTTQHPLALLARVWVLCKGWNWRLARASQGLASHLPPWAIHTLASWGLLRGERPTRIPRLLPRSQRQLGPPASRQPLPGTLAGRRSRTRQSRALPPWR

[2] = target: Serine/threonine-protein kinase MARK2 (Homo sapiens) (UniProt Q7KZI7); experiment: Inhibition of MARK2 Lys1 labeling site harbouring HILTGKEVAVKIIDKTQLNSSSLQK in human Huh-7 cells at 1 uM by KiNativ Profiling analysis relative to control; format: cell-based
Sequence of Serine/threonine-protein kinase MARK2 (Homo sapiens) (Q7KZI7 whole entry): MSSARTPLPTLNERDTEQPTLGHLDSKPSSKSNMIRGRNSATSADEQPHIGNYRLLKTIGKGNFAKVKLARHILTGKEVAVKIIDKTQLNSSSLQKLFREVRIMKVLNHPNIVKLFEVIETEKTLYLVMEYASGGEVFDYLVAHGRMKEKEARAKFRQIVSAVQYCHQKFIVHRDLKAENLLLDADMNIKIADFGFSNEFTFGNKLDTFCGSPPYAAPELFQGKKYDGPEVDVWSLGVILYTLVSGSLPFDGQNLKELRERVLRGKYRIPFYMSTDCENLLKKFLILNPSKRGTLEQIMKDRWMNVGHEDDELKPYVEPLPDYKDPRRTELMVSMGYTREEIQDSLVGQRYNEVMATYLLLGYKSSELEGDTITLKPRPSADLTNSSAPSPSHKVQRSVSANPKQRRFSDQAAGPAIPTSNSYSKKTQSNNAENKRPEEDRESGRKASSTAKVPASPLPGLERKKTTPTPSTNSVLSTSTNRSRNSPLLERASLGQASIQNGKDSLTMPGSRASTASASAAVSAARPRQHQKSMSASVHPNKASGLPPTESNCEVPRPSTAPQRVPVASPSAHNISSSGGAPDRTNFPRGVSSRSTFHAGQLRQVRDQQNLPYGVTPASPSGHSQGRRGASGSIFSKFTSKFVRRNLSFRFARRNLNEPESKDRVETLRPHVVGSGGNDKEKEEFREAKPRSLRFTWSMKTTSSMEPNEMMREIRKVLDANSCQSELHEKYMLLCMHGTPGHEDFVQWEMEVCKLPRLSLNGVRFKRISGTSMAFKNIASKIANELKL

[3] = target: BMP-2-inducible protein kinase (Homo sapiens) (UniProt Q9NSY1); experiment: Inhibition of BIKE (unknown origin) at 1 uM by Ambit Kinomescan binding assay relative to control; values are per cent of control
[4] = target: Receptor tyrosine-protein kinase erbB-2 (Homo sapiens) (UniProt P04626); experiment: Inhibition of ERBB2 (unknown origin) at 1 uM by Ambit Kinomescan binding assay relative to control
[5] = target: SRSF protein kinase 1 (Homo sapiens) (UniProt Q96SB4); experiment: Inhibition of SRPK1 (unknown origin) at 1 uM by Ambit Kinomescan binding assay relative to control
Sequence of SRSF protein kinase 1 (Homo sapiens) (Q96SB4 whole entry): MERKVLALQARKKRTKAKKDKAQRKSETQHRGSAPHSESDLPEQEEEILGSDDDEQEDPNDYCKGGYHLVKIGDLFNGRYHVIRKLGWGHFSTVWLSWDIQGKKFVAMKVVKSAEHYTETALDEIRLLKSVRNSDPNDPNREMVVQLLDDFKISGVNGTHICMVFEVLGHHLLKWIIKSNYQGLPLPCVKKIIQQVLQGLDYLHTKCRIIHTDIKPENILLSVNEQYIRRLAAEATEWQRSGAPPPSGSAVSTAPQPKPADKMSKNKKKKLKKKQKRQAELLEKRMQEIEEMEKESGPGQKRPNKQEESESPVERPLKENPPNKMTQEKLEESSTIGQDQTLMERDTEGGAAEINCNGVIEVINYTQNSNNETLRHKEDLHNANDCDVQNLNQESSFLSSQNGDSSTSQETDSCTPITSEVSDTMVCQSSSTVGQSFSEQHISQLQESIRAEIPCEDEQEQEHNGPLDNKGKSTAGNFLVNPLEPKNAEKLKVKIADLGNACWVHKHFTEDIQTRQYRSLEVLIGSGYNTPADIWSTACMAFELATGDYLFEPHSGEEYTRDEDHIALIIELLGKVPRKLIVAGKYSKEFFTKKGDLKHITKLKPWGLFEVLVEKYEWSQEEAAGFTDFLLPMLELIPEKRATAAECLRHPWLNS

[6] = target: Tyrosine-protein kinase ABL1 (Homo sapiens, UniProt P00519); experiment: Inhibition of phosphorylated ABL1 (unknown origin) at 1 uM by Ambit Kinomescan binding assay relative to control; values are per cent of control
Sequence of Tyrosine-protein kinase ABL1 (P00519 whole entry): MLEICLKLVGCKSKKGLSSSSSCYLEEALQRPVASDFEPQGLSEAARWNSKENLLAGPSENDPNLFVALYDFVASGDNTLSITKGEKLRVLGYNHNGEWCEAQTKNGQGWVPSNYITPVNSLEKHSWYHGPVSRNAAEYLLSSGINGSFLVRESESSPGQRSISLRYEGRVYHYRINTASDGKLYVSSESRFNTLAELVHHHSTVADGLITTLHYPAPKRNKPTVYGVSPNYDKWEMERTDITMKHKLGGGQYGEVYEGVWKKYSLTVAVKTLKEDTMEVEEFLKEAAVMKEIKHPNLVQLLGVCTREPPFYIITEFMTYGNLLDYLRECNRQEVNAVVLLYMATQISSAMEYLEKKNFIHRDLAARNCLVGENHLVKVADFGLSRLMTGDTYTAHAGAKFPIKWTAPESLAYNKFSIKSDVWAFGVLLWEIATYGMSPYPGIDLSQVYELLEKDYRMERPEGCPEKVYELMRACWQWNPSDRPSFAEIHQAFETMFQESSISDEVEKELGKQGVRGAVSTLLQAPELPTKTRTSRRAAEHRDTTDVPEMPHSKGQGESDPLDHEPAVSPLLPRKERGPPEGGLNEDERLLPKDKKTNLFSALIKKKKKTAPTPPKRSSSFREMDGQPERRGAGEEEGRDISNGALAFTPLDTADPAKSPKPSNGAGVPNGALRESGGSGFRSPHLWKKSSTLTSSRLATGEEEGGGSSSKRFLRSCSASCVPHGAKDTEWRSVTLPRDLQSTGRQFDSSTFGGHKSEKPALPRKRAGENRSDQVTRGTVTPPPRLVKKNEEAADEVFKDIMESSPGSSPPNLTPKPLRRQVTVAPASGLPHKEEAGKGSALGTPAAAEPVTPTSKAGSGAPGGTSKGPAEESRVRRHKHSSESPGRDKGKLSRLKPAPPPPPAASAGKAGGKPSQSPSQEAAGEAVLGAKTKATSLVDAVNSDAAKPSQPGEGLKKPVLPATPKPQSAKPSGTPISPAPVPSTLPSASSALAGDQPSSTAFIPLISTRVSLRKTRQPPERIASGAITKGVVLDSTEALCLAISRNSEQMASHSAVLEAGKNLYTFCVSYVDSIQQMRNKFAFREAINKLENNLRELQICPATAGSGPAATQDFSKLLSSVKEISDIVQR

[7] = target: RAF proto-oncogene serine/threonine-protein kinase (Homo sapiens, UniProt P04049); experiment: Inhibition of RAF1 (unknown origin) at 1 uM by Ambit Kinomescan binding assay relative to control
[8] = target: Serine/threonine-protein kinase SIK3 (Homo sapiens) (UniProt Q9Y2K2); experiment: Inhibition of QSK (unknown origin) at 1 uM by Ambit Kinomescan binding assay relative to control
Sequence of Serine/threonine-protein kinase SIK3 (Homo sapiens) (Q9Y2K2 whole entry, looked up): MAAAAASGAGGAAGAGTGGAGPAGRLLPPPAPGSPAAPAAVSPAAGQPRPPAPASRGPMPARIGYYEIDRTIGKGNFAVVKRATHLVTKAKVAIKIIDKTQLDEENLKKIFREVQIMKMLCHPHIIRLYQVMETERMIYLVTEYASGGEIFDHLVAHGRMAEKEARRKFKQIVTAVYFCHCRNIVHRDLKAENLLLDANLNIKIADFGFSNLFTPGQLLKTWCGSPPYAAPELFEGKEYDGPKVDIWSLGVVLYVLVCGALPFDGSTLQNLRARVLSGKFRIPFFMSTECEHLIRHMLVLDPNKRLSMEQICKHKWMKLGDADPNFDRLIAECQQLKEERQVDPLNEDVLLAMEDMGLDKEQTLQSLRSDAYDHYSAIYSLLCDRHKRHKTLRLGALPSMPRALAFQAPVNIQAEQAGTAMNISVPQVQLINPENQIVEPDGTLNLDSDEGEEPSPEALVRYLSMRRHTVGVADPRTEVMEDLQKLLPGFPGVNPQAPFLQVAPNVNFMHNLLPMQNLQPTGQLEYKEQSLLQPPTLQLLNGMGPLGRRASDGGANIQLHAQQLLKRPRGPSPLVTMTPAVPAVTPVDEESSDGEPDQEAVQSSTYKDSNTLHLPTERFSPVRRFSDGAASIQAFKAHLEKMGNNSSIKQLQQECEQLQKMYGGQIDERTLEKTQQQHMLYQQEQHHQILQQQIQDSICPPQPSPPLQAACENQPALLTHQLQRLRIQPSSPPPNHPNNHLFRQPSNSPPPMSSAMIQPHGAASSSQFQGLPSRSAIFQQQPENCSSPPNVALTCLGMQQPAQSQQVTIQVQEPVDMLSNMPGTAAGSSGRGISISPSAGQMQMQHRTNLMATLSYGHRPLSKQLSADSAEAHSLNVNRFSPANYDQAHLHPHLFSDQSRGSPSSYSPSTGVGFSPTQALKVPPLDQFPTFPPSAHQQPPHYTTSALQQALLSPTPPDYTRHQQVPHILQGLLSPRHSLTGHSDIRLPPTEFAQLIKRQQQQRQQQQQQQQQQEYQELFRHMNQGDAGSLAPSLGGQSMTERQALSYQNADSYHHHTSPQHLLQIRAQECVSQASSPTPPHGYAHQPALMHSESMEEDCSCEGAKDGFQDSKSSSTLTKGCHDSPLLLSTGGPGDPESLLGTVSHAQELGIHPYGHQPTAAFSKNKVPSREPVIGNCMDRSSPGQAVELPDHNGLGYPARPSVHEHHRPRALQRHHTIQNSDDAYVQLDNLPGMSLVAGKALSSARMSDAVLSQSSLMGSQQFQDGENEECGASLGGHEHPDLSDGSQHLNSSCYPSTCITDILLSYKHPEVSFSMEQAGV

[9] = target: Serine/threonine-protein kinase 4 (Homo sapiens) (UniProt Q13043); experiment: Inhibition of MST1 Lys1 labeling site harbouring AIHKETGQIVAIKQVPVESDLQEIIK in human A-375 cells at 5 uM by KiNativ Profiling analysis relative to control
[10] = test system: BaF3; experiment: Antiproliferative activity against parental mouse BaF3 cells assessed reduction in cell viability measured after 48 hrs by Celltiter-glo assay; format: functional, cell-based; conditions: BaF3, 48 h
[11] = test system: Mast/stem cell growth factor receptor Kit (Homo sapiens), P10721 [V559D,T670I]; experiment: Inhibition of KIT V559D/T670I double mutant (unknown origin) at 10 uM by Ambit Kinomescan binding assay relative to control
Sequence of Mast/stem cell growth factor receptor Kit (Homo sapiens), P10721 [V559D,T670I] (P10721 whole entry V559D/T670I): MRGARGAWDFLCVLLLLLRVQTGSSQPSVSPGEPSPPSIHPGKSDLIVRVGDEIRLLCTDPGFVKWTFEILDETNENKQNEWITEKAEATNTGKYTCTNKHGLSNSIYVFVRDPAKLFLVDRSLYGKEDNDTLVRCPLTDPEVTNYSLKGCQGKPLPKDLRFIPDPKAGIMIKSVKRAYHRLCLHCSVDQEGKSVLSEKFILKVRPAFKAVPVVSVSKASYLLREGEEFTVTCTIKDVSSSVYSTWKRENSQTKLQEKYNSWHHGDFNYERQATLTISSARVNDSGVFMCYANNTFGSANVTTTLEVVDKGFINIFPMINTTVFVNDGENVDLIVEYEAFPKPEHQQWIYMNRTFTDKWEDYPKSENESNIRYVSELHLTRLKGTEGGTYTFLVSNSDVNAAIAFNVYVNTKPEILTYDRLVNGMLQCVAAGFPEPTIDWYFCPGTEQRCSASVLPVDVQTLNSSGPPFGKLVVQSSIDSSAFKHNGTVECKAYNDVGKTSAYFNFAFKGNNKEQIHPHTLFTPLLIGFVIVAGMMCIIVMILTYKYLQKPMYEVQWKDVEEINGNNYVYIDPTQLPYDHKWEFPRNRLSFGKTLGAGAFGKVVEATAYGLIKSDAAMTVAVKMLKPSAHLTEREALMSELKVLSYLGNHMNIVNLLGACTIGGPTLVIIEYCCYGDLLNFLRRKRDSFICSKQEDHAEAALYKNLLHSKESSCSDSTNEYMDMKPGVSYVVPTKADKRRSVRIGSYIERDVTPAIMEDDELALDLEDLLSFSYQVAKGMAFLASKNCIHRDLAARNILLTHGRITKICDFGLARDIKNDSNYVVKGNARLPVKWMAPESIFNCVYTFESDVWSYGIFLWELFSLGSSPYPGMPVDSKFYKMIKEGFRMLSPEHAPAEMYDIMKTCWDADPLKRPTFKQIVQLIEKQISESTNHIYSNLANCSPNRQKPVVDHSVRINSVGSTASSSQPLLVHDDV

[12] = target: T2, Dual specificity mitogen-activated protein kinase kinase 6 (Homo sapiens) (UniProt P52564); experiment: Inhibition of MAP2K6 K2 labeling site in human Huh-7 cells at 1 uM by KiNativ Profiling analysis relative to control; format: cell-based
T2 sequence (whole entry): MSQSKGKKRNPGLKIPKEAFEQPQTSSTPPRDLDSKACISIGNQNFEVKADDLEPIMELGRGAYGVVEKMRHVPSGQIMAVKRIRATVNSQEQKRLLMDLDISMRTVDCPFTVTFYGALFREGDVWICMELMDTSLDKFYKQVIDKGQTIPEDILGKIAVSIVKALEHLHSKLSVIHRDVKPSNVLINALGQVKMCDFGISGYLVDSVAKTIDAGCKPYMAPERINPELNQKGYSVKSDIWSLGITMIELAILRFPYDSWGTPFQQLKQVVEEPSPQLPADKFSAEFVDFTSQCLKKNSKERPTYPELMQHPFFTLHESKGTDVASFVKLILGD

[13] = target: Tyrosine-protein kinase Blk (Homo sapiens) (UniProt P51451); experiment: Inhibition of BLK (unknown origin) at 10 uM by Ambit Kinomescan binding assay relative to control
[14] = target: T2, Dual specificity mitogen-activated protein kinase kinase 6 (Homo sapiens); experiment: Inhibition of MAP2K6 Lys1 labeling site in human A-375 cells at 0.5 uM by KiNativ Profiling analysis relative to control; format: cell-based
[15] = target: DNA-dependent protein kinase catalytic subunit (Homo sapiens) (UniProt P78527); experiment: Inhibition of PRKDC ATP labeling site harbouring KGGSWIQEINVAEK in human Huh-7 cells at 10 uM by KiNativ Profiling analysis relative to control; format: cell-based
[16] = target: Ephrin type-A receptor 1 (Homo sapiens) (UniProt P21709); experiment: Inhibition of EPHA1 (unknown origin) at 10 uM by Ambit Kinomescan binding assay

**Q.** With `CNc1cc(Oc2cc(C(=O)Nc3cc(N4CCN(C)CC4)cc(C(F)(F)F)c3)ccc2C)ncn1` as the compound, how does the inhibition [1] read?
**A.** Its inhibition is 35.6%.

**Q.** What about the inhibition [2] of the same compound?
**A.** Its inhibition is -0.2%.

**Q.** Which results are given for `CCN1CCN(Cc2ccc(NC(=O)c3ccc(C)c(/C=C/c4cnc5[nH]ccc5c4OC)c3)cc2C(F)(F)F)CC1`?
**A.** residual activity [3]: 25%; inhibition [4]: 19%; inhibition [5]: 28%; % of control [6]: 0.7%; inhibition [7]: 7.8%; inhibition [8]: 100%; inhibition [9]: 16.1%; IC50 [10]: 4.02 µM

**Q.** With `CCN1CCN(Cc2ccc(NC(=O)c3ccc(C)c(Oc4ccnc5[nH]ccc45)c3)cc2C(F)(F)F)CC1` as the compound, how does the inhibition [11] read?
**A.** Its inhibition is 0.05%.

**Q.** And the inhibition [12]?
**A.** Its inhibition is -7.1%.

**Q.** And the inhibition [13]?
**A.** Its inhibition is 0.45%.

**Q.** And the inhibition [14]?
**A.** Its inhibition is 4.5%.

**Q.** What about the inhibition [15] of the same compound?
**A.** Its inhibition is 0.2%.

**Q.** And the inhibition [16]?
**A.** The inhibition was “inactive”.
